pIC50: −log10 of the molar value.
Biological target: human JNK3 enzyme (Homo sapiens, UniProt P53779)
Assay: Measurement of JNK3 enzymatic activity (33P-ATP filter-binding method)
Type: biochemical
Settings: Table 1; ATP 10 μM, ATF2 3 μM
Procedure: First, a substrate was added to a prepared base reaction buffer solution (20 mM Hepes (pH 7.5), 10 mM MgCl2, 1 mM EGTA, 0.02% Brij35, 0.02 mg/ml BSA, 0.1 mM Na3VO4, 2 mM DTT, 1% DMSO), a human JNK3 enzyme was added into the prepared substrate solution, and the resulting solution was mixed. ATP (10 μM) and ATF2 (3 μM) were used as substrates, and among them, ATP was used as a common substrate. Next, the compound according to the present invention dissolved in 100% DMSO was added to an enzyme reaction solution, and incubated at room temperature for 20 minutes. Subsequently, ^33P-ATP was added to the mixed reaction solution to initiate the reaction, followed by incubation at room temperature for 2 hours, and enzymatic activity was detected by a filter-binding method. Specifically, 25 al per resulting solution was slowly spotted on P81 paper and placed in a scintillation vial, and then the paper was washed four times with 0.75% phosphoric acid for 10 minutes each and washed once with acetone for 5 minutes. 5 ml of a scintillation cocktail was added to the scintillation vial and signals were read using a scintillation counter.

human JNK3 enzyme, sequence (P53779 whole entry): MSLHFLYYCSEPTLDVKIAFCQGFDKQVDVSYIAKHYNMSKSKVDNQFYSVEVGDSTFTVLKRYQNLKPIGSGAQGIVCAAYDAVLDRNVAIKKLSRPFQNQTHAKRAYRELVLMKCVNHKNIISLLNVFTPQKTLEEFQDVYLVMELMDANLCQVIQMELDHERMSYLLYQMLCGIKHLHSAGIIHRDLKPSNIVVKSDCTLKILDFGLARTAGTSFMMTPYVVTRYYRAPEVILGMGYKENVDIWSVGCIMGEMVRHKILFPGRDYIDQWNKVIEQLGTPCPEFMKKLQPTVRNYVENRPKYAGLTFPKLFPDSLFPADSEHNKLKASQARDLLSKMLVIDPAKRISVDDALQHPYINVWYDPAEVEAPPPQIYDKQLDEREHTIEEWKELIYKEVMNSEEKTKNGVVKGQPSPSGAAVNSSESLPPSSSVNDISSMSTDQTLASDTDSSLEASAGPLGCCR

pIC50, 7.00 to 7.52:
Oc1ccc2c(c1)nc(-c1ccc(Cl)c(Cl)c1)n2-c1ccnc(NC2CCOCC2)n1 [Compound 9e]
Oc1ccc2c(c1)nc(-c1ccc(F)c(C(F)(F)F)c1)n2-c1ccnc(NC2CCOCC2)n1 [Compound 9f, 2-(4-fluoro-3-(trifluoromethyl)phenyl)-1-(2-((tetrahydro-2H-pyran-4-yl)amino)pyrimidin-4-yl)-1H-benzo[d]imidazole-5-ol]
O=C(C1CC1)N1CCC[C@H](Nc2nccc(-n3c(-c4ccc5ccccc5c4)nc4cc(O)ccc43)n2)C1 [Compound 13a, (S)-cyclopropyl(3-((4-(5-hydroxy-2-(naphthalene-2-yl)-1H-benzo[d]imidazole-1-yl)pyrimidin-2-yl)amino)piperidine-1-yl)methanone]
O=C(C1CC1)N1CCC[C@H](Nc2nccc(-n3c(-c4ccc5ccccc5n4)nc4cc(O)ccc43)n2)C1 [Compound 13b, (S)-cyclopropyl(3-((4-(5-hydroxy-2-(Quinoline-2-yl)-1H-benzo[d]imidazole-1-yl)pyrimidin-2-yl)amino)piperidine-1-yl)methanone]
O=C(C1CC1)N1CCC[C@H](Nc2nccc(-n3c(-c4ccc5c(c4)OCCO5)nc4cc(O)ccc43)n2)C1 [Compound 13c, (S)-cyclopropyl(3-((4-(2-(2,3-dihydrobenzo[b][1,4]dioxin-6-yl)-5-hydroxy-1H-benzo[d]imidazole-1-yl)pyrimidin-2-yl)amino)piperidine-1-yl)methanone]
O=C(C1CC1)N1CCC[C@H](Nc2nccc(-n3c(-c4ccc(F)c(C(F)(F)F)c4)nc4cc(O)ccc43)n2)C1 [Compound 13f, (S)-cyclopropyl(3-((4-(2-(4-fluoro-3-(trifluoromethyl)phenyl)-5-hydroxy-1H-benzo[d]imidazole-1-yl)pyrimidin-2-yl)amino)piperidine-1-yl)methanone]
O=C(C1CC1)N1CCC[C@H](Nc2nccc(-n3c(-c4ccc5c(c4)OCO5)nc4cc(O)ccc43)n2)C1 [Compound 13g, (S)-(3-(4-(2-(benzo[d][1,3]dioxole-5-yl)-5-hydroxy-1H-benz[d]imidazole-1-yl)pyrimidin-2-ylamino)piperidine-1-yl)(cyclopropyl)methanone]

pIC50, < 7.00:
Oc1ccc2c(c1)nc(-c1ccc3ccccc3c1)n2-c1ccnc(NC2CCOCC2)n1 [Compound 9a, 2-(naphthalene-2-yl)-1-(2-((tetrahydro-2H-pyran-4-yl)amino)pyrimidin-4-yl)-1H-benzo[d]imidazole-5-ol]
Oc1ccc2c(c1)nc(-c1ccc3c(c1)OCCO3)n2-c1ccnc(NC2CCOCC2)n1 [Compound 9c, 2-(2,3-dihydrobenzo[b][1,4]dioxin-6-yl)-1-(2-((tetrahydro-2H-pyran-4-yl)amino)pyrimidin-4-yl)-1H-benzo[d]imidazole-5-ol]
Oc1ccc2c(c1)nc(-c1ccc3occc3c1)n2-c1ccnc(NC2CCOCC2)n1 [Compound 9d, 2-(benzofuran-5-yl)-1-(2-((tetrahydro-2H-pyran-4-yl)amino)pyrimidin-4-yl)-1H-benzo[d]imidazole-5-ol]
Oc1ccc2c(c1)nc(-c1ccc3ccccc3c1)n2-c1ccnc(NC2CCCCC2)n1 [Compound 10a, 1-(2-(cyclohexylamino)pyrimidin-4-yl)-2-(naphthalene-2-yl)-1H-benzo[d]imidazole-5-ol]
Oc1ccc2c(c1)nc(-c1ccc3c(c1)OCCO3)n2-c1ccnc(NC2CCCCC2)n1 [Compound 10c, 1-(2-(cyclohexylamino)pyrimidin-4-yl)-2-(2,3-dihydrobenzo[b][1,4]dioxin-6-yl)-1H-benzo[d]imidazole-5-ol]
Oc1ccc2c(c1)nc(-c1ccc3occc3c1)n2-c1ccnc(NC2CCCCC2)n1 [Compound 10d, 2-(benzofuran-5-yl)-1-(2-(cyclohexylamine)pyrimidin-4-yl)-1H-benzo[d]imidazole-5-ol]
Oc1ccc2c(c1)nc(-c1ccc(Cl)c(Cl)c1)n2-c1ccnc(NC2CCCCC2)n1 [Compound 10e, 1-(2-(cyclohexylamino)pyrimidin-4-yl)-2-(3,4-dichlorophenyl)-1H-benzo[d]imidazole-5-ol]
Oc1ccc2c(c1)nc(-c1ccc(F)c(C(F)(F)F)c1)n2-c1ccnc(NC2CCCCC2)n1 [Compound 10f, 1-(2-(cyclohexylamino)pyrimidin-4-yl)-2-(4-fluoro-3-(trifluoromethyl)phenyl)-1H-benzo[d]imidazole-5-ol]

pIC50, > 7.52:
O=C(C1CC1)N1CCC[C@H](Nc2nccc(-n3c(-c4ccc5occc5c4)nc4cc(O)ccc43)n2)C1 [Compound 13d, (S)-(3-(4-(2-(benzofuran-5-yl)-5-hydroxy-1H-benz[d]imidazole-1-yl)pyrimidin-2-ylamino)piperidine-1-yl)(cyclopropyl)methanone]
O=C(C1CC1)N1CCC[C@H](Nc2nccc(-n3c(-c4ccc(Cl)c(Cl)c4)nc4cc(O)ccc43)n2)C1 [Compound 13e, (S)-cyclopropyl(3-((4-(2-(3,4-dichlorophenyl)-5-hydroxy-1H-benzo[d]imidazole-1-yl)pyrimidin-2-yl)amino)piperidine-1-yl)methanone]

Same assay, conditions: Table 2; ATP 10 μM, ATF2 3 μM

pIC50, 7.00 to 7.52:
Oc1ccc2nc(-c3ccc4ccccc4c3)n(-c3ccnc(NC4CCOCC4)n3)c2c1 [Compound 22a, 2-(naphthalene-2-yl)-1-(2-((tetrahydro-2H-pyran-4-yl)amino)pyrimidin-4-yl)-1H-benzo[d]imidazole-6-ol]
Oc1ccc2nc(-c3ccc4ccccc4n3)n(-c3ccnc(NC4CCOCC4)n3)c2c1 [Compound 22b, 2-(Quinoline-2-yl)-1-(2-((tetrahydro-2H-pyran-4-yl)amino)pyrimidin-4-yl)-1H-benzo[d]imidazole-6-ol]
Oc1ccc2nc(-c3ccc4c(c3)OCCO4)n(-c3ccnc(NC4CCOCC4)n3)c2c1 [Compound 22c, 2-(2,3-dihydrobenzo[b][1,4]dioxin-6-yl)-1-(2-((tetrahydro-2H-pyran-4-yl)amino)pyrimidin-4-yl)-1H-benzo[d]imidazole-6-ol]
Oc1ccc2nc(-c3ccc4occc4c3)n(-c3ccnc(NC4CCOCC4)n3)c2c1 [Compound 22d, 2-(benzofuran-5-yl)-1-(2-((tetrahydro-2H-pyran-4-yl)amino)pyrimidin-4-yl)-1H-benzo[d]imidazole-6-ol]
Oc1ccc2nc(-c3ccc(Cl)c(Cl)c3)n(-c3ccnc(NC4CCCCC4)n3)c2c1 [Compound 23e, 1-(2-(cyclohexylamino)pyrimidin-4-yl)-2-(3,4-dichlorophenyl)-1H-benzo[d]imidazole-6-ol]
O=C(C1CC1)N1CCC[C@H](Nc2nccc(-n3c(-c4ccc5ccccc5n4)nc4ccc(O)cc43)n2)C1 [Compound 26b, (S)-cyclopropyl(3-(4-(6-hydroxy-2-(Quinoline-2-yl)-1H-benzo[d]imidazole-1-yl)pyrimidin-2-ylamino)piperidine-1-yl)methanone]
O=C(C1CC1)N1CCC[C@H](Nc2nccc(-n3c(-c4ccc(F)c(C(F)(F)F)c4)nc4ccc(O)cc43)n2)C1 [Compound 26f, (S)-cyclopropyl(3-((4-(2-(4-fluoro-3-(trifluoromethyl)phenyl)-6-hydroxy-1H-benzo[d]imidazole-1-yl)pyrimidin-2-yl)amino)piperidine-1-yl)methanone]

pIC50, > 7.52:
O=C(C1CC1)N1CCC[C@H](Nc2nccc(-n3c(-c4ccc5occc5c4)nc4ccc(O)cc43)n2)C1 [Compound 26d, (S)-(3-((4-(2-(benzofuran-5-yl)-6-hydroxy-1H-benzo[d]imidazole-1-yl)pyrimidin-2-yl)amino)piperidine-1-yl)(cyclopropyl)methanone]
O=C(C1CC1)N1CCC[C@H](Nc2nccc(-n3c(-c4ccc(Cl)c(Cl)c4)nc4ccc(O)cc43)n2)C1 [Compound 26e, (S)-cyclopropyl(3-((4-(2-(3,4-dichlorophenyl)-6-hydroxy-1H-benzo[d]imidazole-1-yl)pyrimidin-2-yl)amino)piperidine-1-yl)methanone]

pIC50, < 7.00:
Oc1ccc2nc(-c3ccc4ccccc4c3)n(-c3ccnc(NC4CCCCC4)n3)c2c1 [Compound 23a, 1-(2-(cyclohexylamino)pyrimidin-4-yl)-2-(naphthalene-2-yl)-1H-benzo[d]imidazole-6-ol]
Oc1ccc2nc(-c3ccc4ccccc4n3)n(-c3ccnc(NC4CCCCC4)n3)c2c1 [Compound 23b, 3-(2-(cyclohexylamino)pyrimidin-4-yl)-2-(Quinoline-2-yl)-3H-benz[d]imidazole-5-ol]
Oc1ccc2nc(-c3ccc4c(c3)OCCO4)n(-c3ccnc(NC4CCCCC4)n3)c2c1 [Compound 23c, 1-(2-(cyclohexylamino)pyrimidin-4-yl)-2-(2,3-dihydrobenzo[b][1,4]dioxin-6-yl)-1H-benzo[d]imidazole-6-ol]
Oc1ccc2nc(-c3ccc4occc4c3)n(-c3ccnc(NC4CCCCC4)n3)c2c1 [Compound 23d, 2-(benzofuran-5-yl)-1-(2-(cyclohexylamino)pyrimidin-4-yl)-1H-benzo[d]imidazole-6-ol]
Oc1ccc2nc(-c3ccc(F)c(C(F)(F)F)c3)n(-c3ccnc(NC4CCCCC4)n3)c2c1 [Compound 23f, 1-(2-(cyclohexylamino)pyrimidin-4-yl)-2-(4-fluoro-3-(trifluoromethyl)phenyl)-1H-benzo[d]imidazole-6-ol]

— patent US10781201B2, “Benzimidazole derivative having JNK inhibitory activity and use thereof” (INDUSTRY-UNIVERSITY COOPERATION FOUNDATION HANYANG …, priority 2017, dated 2020)
